Experimental data taken from ChEMBL document CHEMBL4130359, “Indazole-based ligands for estrogen-related receptor α as potential anti-diabetic agents” (Eur J Med Chem, 2017).

Columns and labels:
[1] = Cmax in Zucker rat sub-chronic fa/fa prediabetic model at 1 mg/kg, po qd measured on day 1 post dose; format: ADME, organism-based; set-up: dose 1 mg/kg, route oral; settings: in vivo
Rattus norvegicus [2] = assay: Toxicity in […] model assessed as serum BUN level at 50 mg/kg, po qd for 31 days measured on day 32 (reference value: 28.3 +/- […]); format: organism-based; settings: in vivo, 744 h
Rattus norvegicus [3] = assay: Effect on HMGCS1 gene expression in epididymal white adipose tissue of Zucker rat sub-chronic fa/fa prediabetic model at 10 mg/kg, po qd for 15 days by microarray analysis relative to control; format: functional
[4] = target: Oxysterols receptor LXR-beta (Homo sapiens, UniProt P55055); assay: Agonist activity at recombinant GST-tagged human LXRbeta LBD assessed as fluorescein-labeled coactivator peptide recruitment preincubated with enzyme followed by coactivator addition by LanthaScreen TR-FRET assay
Rattus norvegicus [5] = assay: Effect on UCP3 gene expression in epididymal white adipose tissue of Zucker rat sub-chronic fa/fa prediabetic model at 10 mg/kg, po qd for 15 days by microarray analysis relative to control; format: functional
Rattus norvegicus [6] = format: functional, Zucker
Rattus norvegicus [7] = assay: Effect on HLA-DRB1 gene expression in epididymal white adipose tissue of Zucker rat sub-chronic fa/fa prediabetic model at 10 mg/kg, po qd for 15 days by microarray analysis relative to control; format: functional
Rattus norvegicus [8] = format: functional, Zucker; remark: listed apart in the source
[9] = Cmax in Zucker rat sub-chronic fa/fa prediabetic model at 50 mg/kg, po qd measured on day 1 post dose; format: ADME, organism-based; set-up: dose 50 mg/kg, route oral; settings: in vivo
Rattus norvegicus [10] = assay: Antidiabetic activity in Zucker rat sub-chronic fa/fa prediabetic model assessed as fasting blood insulin level at 3 mg/kg, po qd for 31 days measured on day 29 post dose (reference value: 8.5 +/- 1.4 ug/L); format: functional
Rattus norvegicus [11] = assay: Toxicity in Zucker rat sub-chronic fa/fa prediabetic model assessed as effect on liver enzymes at 10 mg/kg, po qd during 10 days study; format: organism-based; settings: in vivo, 240 h
Rattus norvegicus [12] = assay: Effect on Ckmt1 gene expression in epididymal white adipose tissue of Zucker rat sub-chronic fa/fa prediabetic model at 10 mg/kg, po qd for 15 days by microarray analysis relative to control; format: functional
Rattus norvegicus [13] = assay: Antidiabetic activity in Zucker rat sub-chronic fa/fa prediabetic model assessed as reduction in blood glucose AUC (0 to 120 min) at 1 mg/kg, po qd for 31 days measured on day 29 post dose by OGTT relative to control; format: functional; set-up: scale not given: the % may be the effect or the level left
Rattus norvegicus [14] = assay: Toxicity in Zucker rat sub-chronic fa/fa prediabetic model assessed as insulin level per gram pancreas at 3 mg/kg, po qd for 31 days measured on day 32 (reference value: 55.2 +/- 5.5 ug); format: organism-based; settings: in vivo, 744 h
Rattus norvegicus [15] = species on record: Rattus norvegicus; assay: Toxicity in Zucker rat sub-chronic fa/fa prediabetic model assessed as increase in epididymal white adipose tissue weight during 15 day single dose study; format: organism-based; settings: in vivo, 360 h
Rattus norvegicus [16] = assay: Toxicity in Zucker rat sub-chronic fa/fa prediabetic model assessed as brown adipose tissue weight at 50 mg/kg, po qd for 31 days measured on day 32 (reference value: 2.1 +/- 0.3 g); format: organism-based; settings: in vivo, 744 h
[17] = target: Retinoic acid receptor beta (Homo sapiens, UniProt P10826); assay: Agonist activity at recombinant GST-tagged human RARbeta LBD assessed as fluorescein-labeled coactivator peptide recruitment preincubated with enzyme followed by coactivator addition by LanthaScreen TR-FRET assay
Rattus norvegicus [18] = assay: Toxicity in […] chronic ob/ob model assessed as change in body weight at 50 mg/kg, po qd for 28 days measured on day 1 to 28 during compound dosing (reference value: 9.9 +/- 1.27 g); format: organism-based; settings: in vivo, 672 h
Rattus norvegicus [19] = assay: Toxicity in Zucker rat sub-chronic fa/fa prediabetic model assessed as serum AST level at 50 mg/kg, po qd for 31 days measured on day 32 (reference value: 187 +/- 37 U/L); format: organism-based; settings: in vivo, 744 h
Rattus norvegicus [20] = assay: Toxicity in Zucker rat sub-chronic fa/fa prediabetic model assessed as heart weight at 3 mg/kg, po qd for 31 days measured on day 32 (reference value: 1.19 +/- 0.04 g); format: organism-based; settings: in vivo, 744 h
Rattus norvegicus [21] = assay: Toxicity in Zucker rat sub-chronic fa/fa prediabetic model assessed as brown adipose tissue weight at 1 mg/kg, po qd for 31 days measured on day 32 (reference value: 2.1 +/- 0.3 g); format: organism-based; settings: in vivo, 744 h
Rattus norvegicus [22] = assay: Effect on ACOT4 gene expression in epididymal white adipose tissue of Zucker rat sub-chronic fa/fa prediabetic model at 10 mg/kg, po qd for 15 days by microarray analysis relative to control; format: functional
Rattus norvegicus [23] = assay: Effect on PPARGC1B gene expression in epididymal white adipose tissue of Zucker rat sub-chronic fa/fa prediabetic model at 10 mg/kg, po qd for 15 days by microarray analysis relative to control; format: functional
[24] = target: T1, Steroid hormone receptor ERR1 (Homo sapiens, UniProt P11474); assay: Antagonist activity at His6-tagged ERRalpha LBD (unknown origin) assessed as inhibition of GST-tagged SRC-2 co-activator peptide recruitment after 18 hrs by TR-FRET assay
T1 sequence (P11474 whole entry): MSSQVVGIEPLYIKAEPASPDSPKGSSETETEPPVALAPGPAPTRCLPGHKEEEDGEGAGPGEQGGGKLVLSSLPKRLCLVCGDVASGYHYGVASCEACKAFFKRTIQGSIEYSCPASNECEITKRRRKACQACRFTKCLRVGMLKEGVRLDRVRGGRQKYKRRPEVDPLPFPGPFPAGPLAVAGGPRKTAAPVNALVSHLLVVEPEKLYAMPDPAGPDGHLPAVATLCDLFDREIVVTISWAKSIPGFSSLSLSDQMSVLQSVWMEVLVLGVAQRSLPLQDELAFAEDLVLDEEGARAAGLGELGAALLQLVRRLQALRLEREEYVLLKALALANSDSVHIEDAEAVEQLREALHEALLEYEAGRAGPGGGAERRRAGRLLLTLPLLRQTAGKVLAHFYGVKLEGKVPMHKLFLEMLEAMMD

[25] = Cmax in Sprague-Dawley rat at 10 mg/kg administered via oral gavage by LC-MS analysis; format: ADME, organism-based; set-up: dose 10 mg/kg, route oral; settings: in vivo
Rattus norvegicus [26] = assay: Toxicity in […] model assessed as serum AST level at 3 mg/kg, po qd for 31 days measured on day 32 (reference value: 180 +/- 26 U/L); format: organism-based; settings: in vivo, 744 h
Rattus norvegicus [27] = assay: Effect on PRKCD gene expression in epididymal white adipose tissue of Zucker rat sub-chronic fa/fa prediabetic model at 10 mg/kg, po qd for 15 days by microarray analysis relative to control; format: functional
Rattus norvegicus [28] = assay: Toxicity in […] model assessed as serum AST level at 50 mg/kg, po qd for 31 days measured on day 32 (reference value: 180 +/- 26 U/L); format: organism-based; settings: in vivo, 744 h
Rattus norvegicus [29] = assay: Effect on ATP5F1 gene expression in epididymal white adipose tissue of Zucker rat sub-chronic fa/fa prediabetic model at 10 mg/kg, po qd for 15 days by microarray analysis relative to control; format: functional
Rattus norvegicus [30] = assay: Effect on TXNRD2 gene expression in epididymal white adipose tissue of Zucker rat sub-chronic fa/fa prediabetic model at 10 mg/kg, po qd for 15 days by microarray analysis relative to control; format: functional

Chain of Retinoic acid receptor beta (P10826 whole entry, the tested form may be a part): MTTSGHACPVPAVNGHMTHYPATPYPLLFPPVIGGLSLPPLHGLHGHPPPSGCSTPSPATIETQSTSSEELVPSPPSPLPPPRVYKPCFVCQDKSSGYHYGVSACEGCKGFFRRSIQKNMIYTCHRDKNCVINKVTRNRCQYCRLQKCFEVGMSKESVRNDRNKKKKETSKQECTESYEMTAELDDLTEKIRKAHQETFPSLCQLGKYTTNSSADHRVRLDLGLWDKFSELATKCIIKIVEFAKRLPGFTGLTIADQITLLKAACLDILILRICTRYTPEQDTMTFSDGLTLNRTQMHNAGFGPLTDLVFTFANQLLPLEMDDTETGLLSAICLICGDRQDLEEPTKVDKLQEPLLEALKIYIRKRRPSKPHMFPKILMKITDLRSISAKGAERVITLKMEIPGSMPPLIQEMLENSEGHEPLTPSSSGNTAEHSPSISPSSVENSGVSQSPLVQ
Chain of Oxysterols receptor LXR-beta (P55055 whole entry, the tested form may be a part): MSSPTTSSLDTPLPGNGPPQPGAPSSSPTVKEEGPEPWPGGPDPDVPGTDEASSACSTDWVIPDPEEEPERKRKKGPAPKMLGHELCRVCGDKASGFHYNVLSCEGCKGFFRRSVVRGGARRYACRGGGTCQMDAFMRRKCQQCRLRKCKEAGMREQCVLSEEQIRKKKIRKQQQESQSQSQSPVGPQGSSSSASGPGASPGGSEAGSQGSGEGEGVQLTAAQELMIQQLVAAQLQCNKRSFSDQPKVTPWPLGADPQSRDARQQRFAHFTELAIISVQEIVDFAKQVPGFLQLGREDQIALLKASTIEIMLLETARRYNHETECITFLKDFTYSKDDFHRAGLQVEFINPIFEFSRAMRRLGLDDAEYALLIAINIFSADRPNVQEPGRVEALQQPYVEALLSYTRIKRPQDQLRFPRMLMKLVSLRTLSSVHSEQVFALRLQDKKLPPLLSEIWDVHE

CN1CC[C@@H](N2C(=O)S/C(=C\c3ccc4c(cnn4Cc4ccc(Cl)cc4C(F)(F)F)c3)C2=O)[C@H](F)C1
Cmax [1]: 262 ng/mL
Activity (Rattus norvegicus [2]): 29.5 mg/dL
fold change (FC) (Rattus norvegicus [3]): -1.387
EC50 [4]: > 10 µM
fold change (FC) (Rattus norvegicus [5]): 2.305
Activity (Rattus norvegicus [6]): 27017 mg·min/dL
fold change (FC) (Rattus norvegicus [7]): -1.334
Activity (Rattus norvegicus [8]): 134 mg/dL
Cmax [9]: 8380 ng/mL
Activity (Rattus norvegicus [10]): 4.8 µg/L
Activity (Rattus norvegicus [11]): Non-Toxic
fold change (FC) (Rattus norvegicus [12]): -1.374
Activity (Rattus norvegicus [13]): 23%
Activity (Rattus norvegicus [14]): 90.7 µg
Activity (Rattus norvegicus [15]): Non-Toxic
Activity (Rattus norvegicus [16]): 10.3 g
EC50 [17]: > 10 µM
Activity (Rattus norvegicus [18]): 9.4 g
Activity (Rattus norvegicus [19]): 87 U/L
Activity (Rattus norvegicus [20]): 1.15 g
Activity (Rattus norvegicus [21]): 3.7 g
fold change (FC) (Rattus norvegicus [22]): 2.122
fold change (FC) (Rattus norvegicus [23]): 2.249
IC50 [24]: 0.023 µM
Cmax [25]: 683 ng/mL
Activity (Rattus norvegicus [26]): 211 U/L
fold change (FC) (Rattus norvegicus [27]): -1.615
Activity (Rattus norvegicus [28]): 199 U/L
fold change (FC) (Rattus norvegicus [29]): 1.257
fold change (FC) (Rattus norvegicus [30]): 1.311
